{"source": "patent US11274106B2", "about": "“Topoisomerase inhibitors with antibacterial and anticancer activity” (THE BOARD OF TRUSTEES OF THE UNIVERSITY OF ILLINOIS, priority 2017, dated 2022)", "key": {"[1]": {"tested_on": "MDA-MB-231 triple negative breast cancer cells", "test": "Antiproliferative SRB assay, MDA-MB-231", "assay_type": "cell-based", "details": "SRB assay", "description": "FIG. 1. […] Cell death measured by SRB assay after 72 hour of compound exposure (n≥3 biological replicates, error bars show SEM). IC50 values given as mean±SEM from ≥3 biological replicates.\nTo investigate the feasibility of developing a class of antitumor antibiotics based upon the DNM scaffold, the ability of the DNM to exert an antiproliferative effect against MDA-MB-231 breast cancer cells was evaluated."}, "BT-474": {"tested_on": "BT-474", "test": "Antiproliferative SRB assay, BT-474", "assay_type": "cell-based", "details": "FIG. 4b, 72 hour", "description": "Topoisomerase inhibitors such as DOX are used as single agent and in combination therapy to treat a wide-range of cancer types."}, "Top1 [2]": {"target": "T1, Top1 (Homo sapiens, UniProt P11387)", "T1 sequence (P11387 1-765)": "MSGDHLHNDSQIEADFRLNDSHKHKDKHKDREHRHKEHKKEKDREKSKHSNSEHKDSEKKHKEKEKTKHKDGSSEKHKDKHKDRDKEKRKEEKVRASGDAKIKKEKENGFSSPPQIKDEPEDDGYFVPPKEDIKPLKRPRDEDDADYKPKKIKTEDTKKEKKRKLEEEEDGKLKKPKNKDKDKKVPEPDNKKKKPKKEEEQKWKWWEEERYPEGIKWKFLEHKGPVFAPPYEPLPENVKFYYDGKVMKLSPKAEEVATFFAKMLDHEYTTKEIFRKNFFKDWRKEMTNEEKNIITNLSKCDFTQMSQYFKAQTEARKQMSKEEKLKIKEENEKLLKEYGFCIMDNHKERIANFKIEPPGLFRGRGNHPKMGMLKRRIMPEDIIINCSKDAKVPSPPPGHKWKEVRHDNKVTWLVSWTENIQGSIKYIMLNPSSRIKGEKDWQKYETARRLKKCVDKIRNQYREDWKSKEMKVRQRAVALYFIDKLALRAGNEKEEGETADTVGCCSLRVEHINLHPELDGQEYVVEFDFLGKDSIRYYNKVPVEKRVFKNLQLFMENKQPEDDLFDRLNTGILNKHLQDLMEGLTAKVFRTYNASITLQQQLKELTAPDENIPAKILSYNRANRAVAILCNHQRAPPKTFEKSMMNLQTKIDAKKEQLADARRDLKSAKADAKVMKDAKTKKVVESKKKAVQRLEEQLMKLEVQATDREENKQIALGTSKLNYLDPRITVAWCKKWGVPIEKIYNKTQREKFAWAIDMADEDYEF", "test": "Top1 degradation by Western blot, BT-474", "assay_type": "cell-based", "details": "50 μM for 2, 4, and 6 hours, then 30-minute drug-free media", "description": "(§1) FIG. 4. Level of Top1-degradation predicts cell line sensitivity. (a) Cells treated with 25 μM of compound for indicated times followed by a 30 minute incubation with drug-free media. Cells were lysed with RIPA and Top1 levels assessed by Western Blot. (b) Degradation of Top1 results in a right-ward shift in the dose-response curve. Effect is most pronounced in Top1-poisons (Ph-6DNM-NH3, CPT) than Top1 catalytic inhibitor (6DNM-Pyr). Cell death measured by SRB assay after 72 hour of compound exposure (n≥3 biological replicates, error bars show SEM).\n(§2) This difference in mechanism of action between Ph-6DNM-NH3 and 6DNM-Pyr may provide an explanation of the differences in cell line sensitivities between the different DNM derivatives. […] This downregulation serves as a resistance mechanism and the level of Top1 degradation is correlated with reduced sensitivity to CPT. To determine if a similar mechanism is responsible for the reduced sensitivity to Ph-6DNM-NH3 and its derivatives in certain cell lines, the effects of Ph-6DNM-NH3 and 6DNM-Pyr were compared to that of CPT in […] and BT-474, two cancer cell lines known to be deficient and proficient in Top1 degradation, respectively. Cells were treated with 50 μM Ph-6DNM-NH3, 6DNM-Pyr, or CPT for 2, 4, and 6 hours. Following a 30-minute incubation with drug-free media to allow for the reversal of any Top1cc formed, cells were lysed and Top1 concentrations assessed by Western blot (FIG. 4a)."}, "Top1 [3]": {"target": "T1, Top1", "test": "Top1 degradation by Western blot, MDA-MB-231", "assay_type": "cell-based", "set-up": "dose or concentration left out as unconfirmed", "details": "4, and 6 hours, then 30-minute drug-free media", "description": "as §1, §2"}, "E. coli": {"tested_on": "E. coli", "test": "Antibacterial MIC, microbroth dilution, E. coli", "assay_type": "cell-based", "description": "(§3) To investigate this possibility, the antibacterial effects of the DNM derivatives was assessed against strains of E. coli, S. aureus, and MRSA using the microbroth dilution method (Table 2)."}, "S. aureus": {"tested_on": "S. aureus", "test": "Antibacterial MIC, microbroth dilution, S. aureus", "assay_type": "cell-based", "description": "as §3"}, "MRSA": {"tested_on": "MRSA", "test": "Antibacterial MIC, microbroth dilution, MRSA", "assay_type": "cell-based, S. aureus", "details": "Staphylococcus aureus, MRSA; microbroth dilution", "description": "as §3"}, "E. coli DNA Gyrase": {"target": "E. coli DNA Gyrase (Escherichia coli, UniProt P0AES4+P0AES6)", "sequence (P0AES4 whole entry, one chain of several)": "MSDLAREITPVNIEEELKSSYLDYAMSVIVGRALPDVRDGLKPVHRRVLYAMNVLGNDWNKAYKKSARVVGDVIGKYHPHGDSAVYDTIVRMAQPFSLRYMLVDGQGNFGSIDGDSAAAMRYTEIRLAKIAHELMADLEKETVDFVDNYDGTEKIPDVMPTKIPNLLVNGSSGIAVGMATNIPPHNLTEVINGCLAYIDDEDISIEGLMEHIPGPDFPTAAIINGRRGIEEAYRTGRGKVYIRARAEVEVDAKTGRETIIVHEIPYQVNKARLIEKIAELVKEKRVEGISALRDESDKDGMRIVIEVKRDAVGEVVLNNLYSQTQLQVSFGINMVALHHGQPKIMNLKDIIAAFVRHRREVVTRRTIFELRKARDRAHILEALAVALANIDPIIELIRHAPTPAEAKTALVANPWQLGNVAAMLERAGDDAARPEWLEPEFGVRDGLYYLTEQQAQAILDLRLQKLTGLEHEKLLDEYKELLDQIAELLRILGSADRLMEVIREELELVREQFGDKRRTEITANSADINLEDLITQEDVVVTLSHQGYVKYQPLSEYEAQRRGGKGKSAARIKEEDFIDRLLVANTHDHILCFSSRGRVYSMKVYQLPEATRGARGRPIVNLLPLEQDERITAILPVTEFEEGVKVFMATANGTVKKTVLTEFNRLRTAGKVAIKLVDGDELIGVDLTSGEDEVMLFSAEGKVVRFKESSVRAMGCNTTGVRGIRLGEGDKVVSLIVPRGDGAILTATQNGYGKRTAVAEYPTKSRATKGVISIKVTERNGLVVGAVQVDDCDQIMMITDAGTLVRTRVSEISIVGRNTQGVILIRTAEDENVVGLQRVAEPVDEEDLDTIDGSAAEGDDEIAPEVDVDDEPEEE", "test": "E. coli DNA Gyrase supercoiling assay", "assay_type": "biochemical", "description": "(§4) FIG. 8. In vitro inhibitory activity of 6DNM-NH3, Ph-6DNM-NH3 against E. coli DNA gyrase and TopoIV.\n(§5) DNM and its derivatives exert their antibacterial effects through inhibition of the DNA Gyrase."}, "E. coli TopoIV": {"target": "E. coli TopoIV (Escherichia coli, UniProt P0AFI2+P20083)", "sequence (P0AFI2 whole entry)": "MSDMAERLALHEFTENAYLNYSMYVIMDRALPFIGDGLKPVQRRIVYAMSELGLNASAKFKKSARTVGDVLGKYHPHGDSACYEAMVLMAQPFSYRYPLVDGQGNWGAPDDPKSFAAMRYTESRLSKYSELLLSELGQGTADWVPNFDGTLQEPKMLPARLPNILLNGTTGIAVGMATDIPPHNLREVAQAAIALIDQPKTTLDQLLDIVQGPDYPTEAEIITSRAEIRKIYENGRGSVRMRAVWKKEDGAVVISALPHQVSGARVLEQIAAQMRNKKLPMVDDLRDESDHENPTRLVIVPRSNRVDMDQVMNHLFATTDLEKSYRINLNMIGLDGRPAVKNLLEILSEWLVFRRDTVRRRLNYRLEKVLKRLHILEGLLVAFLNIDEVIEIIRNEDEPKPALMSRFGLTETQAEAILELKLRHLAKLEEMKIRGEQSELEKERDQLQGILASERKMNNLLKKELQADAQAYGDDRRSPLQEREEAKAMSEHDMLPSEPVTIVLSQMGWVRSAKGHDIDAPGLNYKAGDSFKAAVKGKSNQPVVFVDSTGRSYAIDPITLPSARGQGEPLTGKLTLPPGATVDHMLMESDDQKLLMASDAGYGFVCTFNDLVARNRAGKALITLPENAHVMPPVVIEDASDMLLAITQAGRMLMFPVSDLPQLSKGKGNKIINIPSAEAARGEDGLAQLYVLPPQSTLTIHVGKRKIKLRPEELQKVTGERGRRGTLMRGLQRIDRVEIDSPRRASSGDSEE", "sequence (P20083 whole entry)": "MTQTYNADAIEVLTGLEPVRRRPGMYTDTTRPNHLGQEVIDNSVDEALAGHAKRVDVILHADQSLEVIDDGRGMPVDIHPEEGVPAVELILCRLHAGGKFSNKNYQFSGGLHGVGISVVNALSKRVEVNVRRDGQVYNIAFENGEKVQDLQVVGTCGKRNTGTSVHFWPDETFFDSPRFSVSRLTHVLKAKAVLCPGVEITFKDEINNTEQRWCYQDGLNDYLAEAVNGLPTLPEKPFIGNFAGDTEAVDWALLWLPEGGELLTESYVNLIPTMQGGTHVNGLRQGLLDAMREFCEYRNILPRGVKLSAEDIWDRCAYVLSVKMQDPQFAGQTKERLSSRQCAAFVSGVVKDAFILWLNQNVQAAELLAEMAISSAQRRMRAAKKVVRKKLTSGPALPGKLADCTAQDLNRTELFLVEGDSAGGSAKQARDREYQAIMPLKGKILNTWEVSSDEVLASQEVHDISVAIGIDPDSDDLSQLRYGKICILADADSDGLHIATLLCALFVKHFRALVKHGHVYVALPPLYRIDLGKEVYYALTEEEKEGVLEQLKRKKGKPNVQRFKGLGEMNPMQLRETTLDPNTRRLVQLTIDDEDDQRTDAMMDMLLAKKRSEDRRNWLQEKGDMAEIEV", "test": "E. coli TopoIV decatenation assay", "assay_type": "biochemical", "description": "as §4, §5"}, "Top2α": {"target": "Top2α (Homo sapiens, UniProt P11388)", "sequence (P11388 whole entry)": "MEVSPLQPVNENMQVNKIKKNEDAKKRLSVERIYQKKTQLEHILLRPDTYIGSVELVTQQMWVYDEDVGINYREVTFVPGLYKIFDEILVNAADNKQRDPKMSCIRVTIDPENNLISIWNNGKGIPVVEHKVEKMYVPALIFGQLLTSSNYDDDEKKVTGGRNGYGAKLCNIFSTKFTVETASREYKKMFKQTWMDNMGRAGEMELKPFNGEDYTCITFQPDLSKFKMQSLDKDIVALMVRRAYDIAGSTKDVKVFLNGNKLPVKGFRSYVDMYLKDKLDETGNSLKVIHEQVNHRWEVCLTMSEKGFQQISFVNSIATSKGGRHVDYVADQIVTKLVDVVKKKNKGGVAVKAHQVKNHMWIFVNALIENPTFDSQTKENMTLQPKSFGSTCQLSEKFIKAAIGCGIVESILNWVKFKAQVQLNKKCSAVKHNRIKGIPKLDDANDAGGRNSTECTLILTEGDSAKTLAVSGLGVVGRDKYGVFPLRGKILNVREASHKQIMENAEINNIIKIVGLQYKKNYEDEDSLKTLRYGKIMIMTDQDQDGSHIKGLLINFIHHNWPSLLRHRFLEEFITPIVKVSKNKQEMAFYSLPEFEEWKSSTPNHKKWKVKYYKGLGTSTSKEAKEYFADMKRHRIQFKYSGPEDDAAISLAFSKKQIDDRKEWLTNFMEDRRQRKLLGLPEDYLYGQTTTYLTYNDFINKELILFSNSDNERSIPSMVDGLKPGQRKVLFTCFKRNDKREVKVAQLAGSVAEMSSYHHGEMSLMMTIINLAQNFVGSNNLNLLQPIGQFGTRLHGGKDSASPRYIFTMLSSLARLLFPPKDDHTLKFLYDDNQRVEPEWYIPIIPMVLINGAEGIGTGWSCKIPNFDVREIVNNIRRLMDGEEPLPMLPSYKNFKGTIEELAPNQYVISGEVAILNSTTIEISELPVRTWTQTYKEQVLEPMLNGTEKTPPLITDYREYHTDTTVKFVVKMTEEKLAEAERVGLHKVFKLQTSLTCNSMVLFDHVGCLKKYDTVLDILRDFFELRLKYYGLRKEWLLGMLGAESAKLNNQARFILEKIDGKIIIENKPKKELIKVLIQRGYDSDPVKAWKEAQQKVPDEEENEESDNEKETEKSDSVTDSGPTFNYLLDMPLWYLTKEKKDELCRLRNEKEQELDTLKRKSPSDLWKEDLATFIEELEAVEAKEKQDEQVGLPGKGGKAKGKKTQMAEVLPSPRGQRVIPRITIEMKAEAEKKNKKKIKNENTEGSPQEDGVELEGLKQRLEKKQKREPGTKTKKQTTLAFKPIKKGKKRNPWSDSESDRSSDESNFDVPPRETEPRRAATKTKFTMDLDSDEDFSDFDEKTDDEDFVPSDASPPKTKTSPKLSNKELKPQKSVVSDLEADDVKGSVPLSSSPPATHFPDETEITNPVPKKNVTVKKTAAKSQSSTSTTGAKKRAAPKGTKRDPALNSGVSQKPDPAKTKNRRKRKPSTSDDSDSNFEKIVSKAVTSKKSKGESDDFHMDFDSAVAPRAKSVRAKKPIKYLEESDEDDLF", "test": "Top2α kDNA decatenation assay", "assay_type": "biochemical", "details": "gel electrophoresis, FIG. 3a", "description": "(§6) FIG. 3. DNM derivatives are dual Top1/Top2 inhibitors with different modes of inhibition. (a) Inhibition of decatenating ability of Top2α with increasing concentrations of ETP, 6DNM-NH3, 6DNM-Pyr, and Ph-6DNM-NH3. K, kinetoplast DNA; OC, open circular; R, relaxed. (b) Inhibition of relaxing ability of Top1 with increasing concentrations of CPT, 6DNM-NH3, 6DNM-Pyr, and Ph-6DNM-NH3. R, relaxed; S, supercoiled. (c) Detection of Top2a-DNA using the ICE Assay. Genomic DNA ([…]) of H460 cells treated with drugs (50 μM, 30 min) was applied to nitrocellulose membrane and immunoblotted for Top2a. (d) Detection of Top1-DNA adducts using ICE Assay. Same procedure as (c) using 1 μg of DNA. (e) Inhibition of ETP-induced poisoning of Top2a. H460 cells treated with indicated concentrations of inhibitor for 30 min prior to treatment with ETP (50 μM). Detection of Top2α as in (c).\nFIG. 9. Mechanism of action studies: Topoisomerases form transient covalent complexes with DNA to modify DNA topology. Ph6DNM-NH3 and 6DNM-NH3 inhibit bacterial DNA gyrase and human topoisomerase II in vitro.\nThe ability of Ph-6DNM-NH3, 6DNM-NH3, and 6DNM-Pyr to inhibit Top2α was assessed using a decatenation assay. In this assay, Top2α is incubated with kinetoplast DNA (kDNA), a large network of catenated minicircles and maxicircles of DNA. As Top2α decatenates the kDNA, it releases supercoiled and relaxed DNA minicircles that are easily separated from the kDNA by gel electrophoresis."}, "Top1 [4]": {"target": "T1, Top1", "test": "Top1 DNA relaxation assay (pBR322)", "assay_type": "biochemical", "details": "supercoiled pBR322, FIG. 3b", "description": "as §6\nTo further investigate any mechanistic differences between these structurally related DNM analogues they were also evaluated against the other clinically-targeted mammalian topoisomerase, Top1, using a DNA relaxation assay in which purified Top1 relaxes supercoiled pBR322 and the two forms are separated by agarose gel electrophoresis."}, "Top2cc": {"target": "T2, Top2cc (Homo sapiens, UniProt P11388)", "T2 construct": "endogenous in cells; host or cells: H460", "T2 sequence (P11388 whole entry)": "as above", "test": "ICE assay for Top2α-DNA complexes in H460 cells", "assay_type": "cell-based", "description": "as §6\n(§7) The in vivo complex of enzyme (ICE) assay can be used to distinguish poisons from catalytic inhibitors. The ICE assay consists of isolating the genomic DNA of cells treated with small molecules in a manner the preserves covalent DNA-protein complexes and applying it to nitrocellulose membranes. Because topoisomerase poisons stabilize the cleavage complexes, DNA-protein complexes can be detected by immunoblotting for specific topoisomerases, whereas catalytic inhibitors produce no such result. To determine if DNM derivatives are acting as poisons or catalytic inhibitors, H460 human lung cells were exposed to 50 μM of the Top2 poison ETP, Ph-6DNM-NH3, 6DNM-NH3, and 6DNM-Pyr and assessed for their ability to stabilize Top2cc. […] In a similar fashion, next investigated was the mode of Top1 inhibition using the ICE assay (FIG. 3b)."}, "Top1cc": {"target": "T3, Top1cc (Homo sapiens, UniProt P11387)", "T3 construct": "endogenous in cells; host or cells: H460", "T3 sequence (P11387 2-765 limits assumed)": "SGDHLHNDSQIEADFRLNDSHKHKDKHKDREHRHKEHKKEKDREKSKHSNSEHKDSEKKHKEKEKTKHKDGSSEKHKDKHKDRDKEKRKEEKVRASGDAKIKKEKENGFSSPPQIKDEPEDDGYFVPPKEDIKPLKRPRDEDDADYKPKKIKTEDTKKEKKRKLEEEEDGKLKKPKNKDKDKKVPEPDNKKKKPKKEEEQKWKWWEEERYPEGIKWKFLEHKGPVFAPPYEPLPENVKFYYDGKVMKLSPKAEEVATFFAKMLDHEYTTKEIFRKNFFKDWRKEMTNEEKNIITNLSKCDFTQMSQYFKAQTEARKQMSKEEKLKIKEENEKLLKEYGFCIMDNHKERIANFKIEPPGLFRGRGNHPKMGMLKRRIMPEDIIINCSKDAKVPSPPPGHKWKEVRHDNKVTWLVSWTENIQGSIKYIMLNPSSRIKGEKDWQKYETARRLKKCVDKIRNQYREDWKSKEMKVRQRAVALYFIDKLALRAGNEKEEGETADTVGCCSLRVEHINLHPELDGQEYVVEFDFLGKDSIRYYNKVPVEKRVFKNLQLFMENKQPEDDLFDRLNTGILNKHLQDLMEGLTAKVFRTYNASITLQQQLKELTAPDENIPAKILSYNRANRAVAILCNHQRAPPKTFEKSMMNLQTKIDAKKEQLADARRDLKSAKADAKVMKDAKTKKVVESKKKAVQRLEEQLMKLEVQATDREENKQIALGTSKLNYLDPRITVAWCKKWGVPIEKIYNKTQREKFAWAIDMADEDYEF", "test": "ICE assay for Top1-DNA adducts in H460 cells", "assay_type": "cell-based", "description": "as §6, §7"}}}
{"smiles": "CC[C@@]1(O)C(=O)OCc2c1cc1n(c2=O)Cc2cc3ccccc3nc2-1", "note": "[CPT, camptothecin, reference compound]", "values": [{"measurement": "Antiproliferative effect against MDA-MB-231 cells", "setting": "[1]; FIG. 1, 72 hour", "result": "sensitive"}, {"measurement": "Effectiveness in BT-474 after Top1 degradation", "setting": "BT-474", "result": "nearly complete resistance"}, {"measurement": "Top1 levels by Western blot in BT-474", "setting": "Top1 [2]", "result": "time-dependent decrease in the levels of Top1"}, {"measurement": "Top1 levels by Western blot in MDA-MB-231", "setting": "Top1 [3]", "result": "minimal differences in Top1 relative to untreated cells"}]}
{"smiles": "Cc1cc(=O)n(C)c2c3c4c(cc12)c(C)cc(=O)n4C(CN)CO3", "note": "(stereo not shown) [Compound 9]", "values": [{"measurement": "IC50", "setting": "[1]; 72 hour compound exposure, mean ± SEM, read-out: MDA-MB-231 IC50", "result": "0.22 ± 0.02", "unit": "µM"}, {"measurement": "E. coli MIC", "setting": "E. coli", "result": 0.5, "unit": "µg/mL"}, {"measurement": "S. aureus MIC", "setting": "S. aureus", "result": 0.5, "unit": "µg/mL"}, {"measurement": "MIC", "setting": "MRSA", "result": 0.03, "unit": "µg/mL"}, {"measurement": "Inhibition of purified E. coli DNA Gyrase", "setting": "E. coli DNA Gyrase", "result": "able to inhibit"}, {"measurement": "Inhibition of purified E. coli TopoIV", "setting": "E. coli TopoIV", "result": "able to inhibit"}, {"measurement": "Inhibition of decatenating function of Top2α", "setting": "Top2α", "result": "inhibit the decatenating function of Top2α in a dose-dependent manner"}, {"measurement": "Inhibition of Top1 relaxation", "setting": "Top1 [4]", "result": "inhibit relaxation at submicromolar concentrations"}, {"measurement": "Accumulation of Top2cc (ICE assay)", "setting": "Top2cc; 50 μM", "result": "only ETP treatment resulted in the accumulation of Top2cc"}, {"measurement": "Effect on ETP-induced Top2cc", "setting": "Top2cc; pre-treatment 30 minutes prior to ETP (50 μM)", "result": "dose-dependent decrease in ETP-induced Top2cc"}, {"measurement": "Accumulation of Top1cc (ICE assay)", "setting": "Top1cc; H460 cells, 50 μM, 30 min", "result": "neither 6DNM-NH3 nor 6DNM-Pyr, leads to the accumulation of Top1cc"}, {"measurement": "Mode of topoisomerase inhibition", "setting": "Top1cc; in vitro and cell culture experiments taken together", "result": "dual Top1/Top2α catalytic inhibitors"}]}
